Measured values reported in patent publication US7662388B2, “Endogenous peptide and active subfragments thereof” (Innoventus Project AB, priority 2003, dated 2010).

What was measured:
[1] = tested on: Primary bovine adrenal cortex capillary endothelial (BCE) cells; assay: chemotaxis assay of synthetic peptides (Table 2); format: cell-based; conditions: for Inhibition of chemotaxis: 100 ng/ml peptide, FGF-2 10 ng/ml, BCE cells, 5 h; for inhibition of chemotaxis, stated in words: chemotaxis assay of table 2
Description: Synthetic peptides were produced by Multiple Peptide Systems, San Diego Calif., USA, and dissolved in 1 mM ZnCl2/0.5xPBS at a stock concentration of 1 mg/ml. The sequences of the peptides were as follows:
A migration assay was performed in a modified Boyden chamber as described earlier (Auerbach et al., 1991) using micropore polycarbonate filters (8 μm thick, 8 μm pore) coated with type-1 collagen solution at 100 μg/ml (Vitrogen 100, Collagen Corp). Primary bovine adrenal cortex capillary endothelial (BCE) cells were trypsinized and resuspended at a concentration of 7.5×10^5 cells/ml in Dulbecco's modified essential medium (Invitrogen) containing 0.25% BSA and Trasylol at 1000 KIE. The cell suspension was placed in the upper chamber. In the lower chamber below the filter was placed medium containing 0.25% BSA and when indicated, 10 ng/ml fibroblast growth factor (FGF-2; Peprotech). Recombinant HRGP produced in 293 cells, alternatively, synthetic peptides, all at a final concentration of 100 ng/ml (or as indicated), was placed in both chambers either alone or in combination with FGF-2. After 5 h at 37° C., the medium was removed and cells sticking to the filter were fixed in pure methanol and stained with Giemsa stain. The number of cells on the lower side of the filter was counted using an image analysis software (Easy Image Analysis) from TeknoOptik, Sweden. All samples were analyzed in series of at least six parallel wells for each treatment.

primary BCE cells = assay: chemotaxis (migration) assay in modified Boyden chamber, BCE cells; format: cell-based, bovine; conditions: 100 ng/ml protein, FGF-2 5 ng/ml, 5 h
Description: The porcine aortic endothelial (PAE) cell line overexpressing FGF receptor-1 (FGFR-1) (Wennström et al 1992) was cultured in Ham's F12/10% fetal bovine serum (FCS) and NIH 3T3 murine fibroblasts were cultured in Dulbecco's modified medium (DMEM)/10% newborn calf serum (NCS). F12, DMEM and serum were bought from Life Technologies. Primary bovine adrenal cortex capillary endothelial (BCE) cells were cultured on gelatin-coated dishes in DMEM/10% NCS and 2 ng/ml FGF-2 (Boehringer Mannheim). For chemotaxis assays, both PAE and NIH 3T3 cells were serum-starved over night in 0.1% BSA and BCE cells in 0.5% NCS. Human embryonic kidney (HEK) 293-EBNA cells were cultured in DMEM/10% FCS. Approximately every second month they were given 0.25 mg/ml G418 (Calbiochem) to ensure positive selection of the EBNA-1 expressing cells.
(§1) A migration assay was performed in a modified Boyden chamber as described earlier (Auerbach et al., 1991) using micropore polycarbonate filters (8 μm thick, 8 μm pore) coated with type-1 collagen solution at 100 μg/ml (Vitrogen 100, Collagen Corp). BCE, PAE/FGFR-1 or NIH 3T3 cells were preincubated or not with HRGP (100 ng/ml) for 30 min, trypsinised and resuspended at a concentration of 7.5×10^5 cells/ml in Dulbecco's modified essential medium (Invitrogen) containing 0.25% BSA and Trasylol at 1000 KIE. FGF-2 and VEGF-A was used at 5 ng/ml, HRGP and the protein C inhibitor (PCI) at 100 ng/ml and BSA at 0.25%. After 5 h at 37° C., migrated cells were stained with Giemsa and counted using an image analysis software (Easy Image Analysis) from Tekno Optik AB, Sweden. All samples were analysed in at least six parallel wells for each treatment.

endothelial cells = assay: chemotaxis of endothelial cells towards FGF-2, truncated HRGP proteins; format: cell-based; conditions: recombinant truncated forms of HRGP
Description: as §1
To determine which part of HRGP was responsible for the anti-angiogenic effect, recombinant truncated forms of the protein were produced (FIG. 5A). Truncated versions containing the C-terminal part of HRGP, but lacking an intact N-terminus, were not possible to produce, maybe due to instability.

T241 fibrosarcoma cells = assay: fibrosarcoma tumour growth in mice (HRGP); format: in vivo; conditions: 14 days
Description: Animal work was carried out at the local animal facility and was approved by the Uppsala University board of animal experimentation and thus performed according to the UKCCCR guidelines for the welfare of animals in experimental neoplasia (Workman et al (1988)). The mice were anesthetized with isoflurane (Forene; Abbott) during all manipulations. Female, 5 week old, C57BL6/1 mice (Mollegard/Bomhultgard, Denmark) were injected with 0.5×10^6 T241 fibrosarcoma cells subcutaneously (s.c.) into the left flank. Animals carrying palpable tumours were randomized (n=7-10 animals/treatment group) and received treatment with vehicle (PBS), 4 mg/kg/day of pHRGP or 5 mg/kg/day of human IgG or His-HRGP, given as daily subcutaneous injections in the right flank. The tumours were measured with a caliper once a day, in a blind procedure, and volumes were calculated by the formula […]. When the tumours reached the upper limit of 2 cm^3, the mice were sacrificed. Three animals in each group were perfused with 4% paraformaldehyde in PBS pH 7.4. Tumours were embedded in paraffin according to standard histological procedures and sectioned at […] thickness.
C57/bl6 mice were inoculated subcutaneously with T241 fibrosarcoma cells on their left flank and when the tumours were palpable (after 4-6 days), a daily treatment was initiated with HRGP or control (PBS; FIG. 2A, or human IgG; FIG. 2B). Endostatin was included in one study for comparison (FIG. 2B). The treatment was given as subcutaneous injections in the right flank until the size of the control tumours reached the upper limit of […] (11 days; FIG. 2A, 14 days; FIG. 2B). Injections with both pHRGP (4 mg/kg/day) and His-HRGP (5 mg/kg/day) led to a drastic reduction in tumour growth and at the time of sacrifice, the size of the tumours was reduced by 67% (FIG. 2A) and 61% (FIG. 2B) respectively, compared to control-treated animals. Endostatin treatment (25 mg/kg/day) lacked significant inhibitory effect on tumour growth in this model (32% decrease).

For AHHPHEHDTHRQHPHG [Pep 10], the Inhibition of chemotaxis [1] was “+”.

In the case of Ac-AHHPHEHDTH-NH2 [Pep 13A], the Inhibition of chemotaxis [1] is reported as “+”.

Ac-AHHPHEHDTHRQHPH-NH2 [Pep 12A] was tested, and the Inhibition of chemotaxis [1] was “+”.

In the case of Ac-EHDTH-NH2 [Pep 15A], the Inhibition of chemotaxis [1] is reported as “+”.

DLHPHEQHPHEHDTHG [Pep 11A] was tested, and the Inhibition of chemotaxis [1] was “− (as compared to Pep 8 and Pep 11A)” and the “inhibition of chemotaxis, stated in words” value [1] was “not to be effective”.

DLHPHKHHSHEQHPHG [Pep 8] was tested, and the Inhibition of chemotaxis [1] was “− (as compared to Pep 8 and Pep 11A)” and the “inhibition of chemotaxis, stated in words” value [1] was “not to be effective”.

For KHHSHEQHPHGHHPHAHHPHEHDTHG [Pep 9A], the Inhibition of chemotaxis [1] was “+”.

B1: PCI: plasma protein of approximately the same mass as HRGP, specificity control (protein, UniProt P05154 26-406, looked up)
Plasma serine protease …: EMKKRVEDLHVGATVAPSSRRDFTFDLYRALASAAPSQSIFFSPVSISMSLAMLSLGAGSSTKMQILEGLGLNLQKSSEKELHRGFQQLLQELNQPRDGFQLSLGNALFTDLVVDLQDTFVSAMKTLYLADTFPTNFRDSAGAMKQINDYVAKQTKGKIVDLLKNLDSNAVVIMVNYIFFKAKWETSFNHKGTQEQDFYVTSETVVRVPMMSREDQYHYLLDRNLSCRVVGVPYQGNATALFILPSEGKMQQVENGLSEKTLRKWLKMFKKRQLELYLPKFSIEGSYQLEKVLPSLGISNVFTSHADLSGISNHSNIQVSEMVHKAVVEVDESGTRAAAATGTIFTFRSARLNSQRLVFNRPFLMFIVDNNILFLGKVNRP
For B1, the “FGF-2-induced chemotaxis of BCE cells” value (primary BCE cells) was “no effect”.

B2: His 4: recombinant truncated version of HRGP that covers the complete central region (protein, listed as Homo sapiens)
chain: VSPTDCSAVEPEAEKALDLINKRRRDGYLFQLLRIADAHLDRVENTTVYYLVLDVQESDCSVLSRKYWNDCEPPDSRRPSEIVIGQCKVIATRHSHESQDLRVIDFNCTTSSVSSALANTKDSPVLIDFFEDTERYRKQANKALEKYKEENDDFASFRVDRIERVARVRGGEGTGYFVDFSVRNCPRHHFPRHPNVFGFCRADLFYDVEALDLESPKNLVINCEVFDPQEHENINGVPPHLGHPFHWGGHERSSTTKPPFKPHGSRDHHHPHKPHEHGPPPPPDERDHSHGPPLPQGPPPLLPMSCSSCQHATFGTNGAQRHSHNNNSSDLHPHKHHSHEQHPHGHHPHAHHPHEHDTHRQHPHGHHPHGHHPHGHHPHGHHPHGHHPHC
With B2 the “inhibition of chemotaxis of endothelial cells towards FGF-2” value (endothelial cells) was “did not inhibit endothelial cell chemotaxis” and the “inhibition of chemotaxis of endothelial cells towards FGF-2” value (endothelial cells; listed as His4) was “failure of His4 to inhibit endothelial cell chemotaxis”.

B3: Endostatin: anti-angiogenic factor included in one tumour study for comparison (protein, UniProt P39060 1572-1754, looked up)
Endostatin: HSHRDFQPVLHLVALNSPLSGGMRGIRGADFQCFQQARAVGLAGTFRAFLSSRLQDLYSIVRRADRAAVPIVNLKDELLFPSWEALFSGSEGPLKPGARIFSFDGKDVLRHPTWPQKSVWHGSDPNGRRLTESYCETWRTEAPSATGQASSLLGGRLLGQSAASCHHAYIVLCIENSFMTASK
modifications: Endostatin
notes: anti-angiogenic factor included in one tumour study for comparison
With B3 the “decrease of tumour growth” value (T241 fibrosarcoma cells; 25 mg/kg/day, comparison) was 32%.

B4: His-HRGP: recombinant full-length HRGP produced in HEK-293-EBNA cells with a His-tag (protein)
chain: VSPTDCSAVEPEAEKALDLINKRRRDGYLFQLLRIADAHLDRVENTTVYYLVLDVQESDCSVLSRKYWNDCEPPDSRRPSEIVIGQCKVIATRHSHESQDLRVIDFNCTTSSVSSALANTKDSPVLIDFFEDTERYRKQANKALEKYKEENDDFASFRVDRIERVARVRGGEGTGYFVDFSVRNCPRHHFPRHPNVFGFCRADLFYDVEALDLESPKNLVINCEVFDPQEHENINGVPPHLGHPFHWGGHERSSTTKPPFKPHGSRDHHHPHKPHEHGPPPPPDERDHSHGPPLPQGPPPLLPMSCSSCQHATFGTNGAQRHSHNNNSSDLHPHKHHSHEQHPHGHHPHAHHPHEHDTHRQHPHGHHPHGHHPHGHHPHGHHPHGHHPHCHDFQDYGPCDPPPHNQGHCCHGHGPPPGHLRRRGPGKGPRPFHCRQIGSVYRLPPLRKGEVLPLPEANFPSFPLPHHKHPLKPDNQPFPQSVSESCPGKFKSGFPQVSMFFTHTFPK
modifications: left off: small tags and cut ends
notes: recombinant full-length HRGP produced in HEK-293-EBNA cells with a His-tag
In the case of B4, the “reduction of tumour size compared to control-treated animals at sacrifice” value (T241 fibrosarcoma cells; 5 mg/kg/day s.c. daily, control human IgG) is reported as 61%.

B5: His 5: recombinant His/Pro-rich domain (central region) of human HRGP (protein, listed as Homo sapiens)
chain: HLGHPFHWGGHERSSTTKPPFKPHGSRDHHHPHKPHEHGPPPPPDERDHSHGPPLPQGPPPLLPMSCSSCQHATFGTNGAQRHSHNNNSSDLHPHKHHSHEQHPHGHHPHAHHPHEHDTHRQHPHGHHPHGHHPHGHHPHGHHPHGHHPHC
In the case of B5, the “inhibition of chemotaxis of endothelial cells towards FGF-2” value (endothelial cells) is reported as “inhibited chemotaxis”, the “inhibition of chemotaxis of endothelial cells towards FGF-2” value (endothelial cells; listed as central region (His/Pro-rich domain) of human HRGP) is reported as “inhibited chemotaxis as potently as the mature protein” and the “inhibition of chemotaxis of endothelial cells towards FGF-2” value (endothelial cells; listed as central region of human HRGP) is reported as “inhibit chemotaxis”.
